Data taken from patent US20160047819A1, “METHOD FOR DIAGNOSING VAGINAL INFECTIONS” (priority 2013, published 2016).

Experiments:
Experiment in all cases: Real-time PCR of vaginal bacterial communities
Format in all cases: in vivo
[1] = test system: Mobiluncus
Description: (§1) The qPCR real-time quantitative PCR was used for the identification and quantification of bacterial groups involved in the imbalance that effects the vaginal microbiota, in particular to determine the concentrations of the principal bacterial groups which are known to be affected in the presence of BV such as Lactobacillus, Atopobium, Gardnerella vaginalis, Prevotella, Veillonella, Mobiluncus and Mycoplasma hominis.
(§2) qPCR was performed on DNA samples extracted from CVF of healthy women (H), women affected by BV at V1 (BV), women who were in remission after rifaximin treatment at V3 (R), and women who were not in remission after antibiotic or placebo treatment at V3 (N).
(§3) A total of 80 Belgian pre-menopausal, non-pregnant women, aged between 18 and 50 years were included in the present study. At the screening visit (V1) diagnosis of health or BV was made using both Amsel's criteria and Gram stain Nugent scoring. Patients with Nugent score >3 and positive for at least 3 of 4 Amsel's criteria were considered positive for BV. According to this clinical evaluation, women were split into 2 groups: healthy subjects (H), who had no signs of vaginal tract infection (n=41) and patients affected by BV (n=39).
(§4) Patients who were diagnosed for BV at the study visit V1 were included in a multicentre, double-blind, randomised, placebo-controlled study (EudraCT: 2009-011826-32), that was performed to compare the efficacy of different doses of rifaximin vaginal tablets versus placebo for the treatment of BV. The patients underwent a randomization visit and were distributed into 4 treatment groups: group A received 100 mg rifaximin vaginal tablet once daily for 5 days (n=10), group B received 25 mg rifaximin vaginal tablet once daily for 5 days (n=10), group C received 100 mg rifaximin vaginal tablet once daily for the first 2 days and placebo vaginal tablet for the remaining 3 days (n=9), group D received placebo vaginal tablet once daily for 5 days (n=10). Study medication was administered intra-vaginally at bedtime. After 7 to 10 days from the end of the therapy a follow-up visit (V3) was performed. Remission was evaluated at V3 according to Amsel's criteria (<3) and Gram stain Nugent score (≦3) (Table 1).
(§5) Standardized vaginal rinsings with 2 mL of saline were collected for analysis at V1 and V3 by flushing and re-aspirating the fluid through a 22 Gauge needle in the left, central and right upper vaginal vaults. The vaginal rinsings were subsequently stored at −80° C. until use.
(§6) One mL of each vaginal rinsing was centrifuged at 9500 g for 15 min to separate the pellet, which was processed for bacterial DNA isolation, from the supernatant, used for protein extraction.
(§7) DNA amount was quantified using NanoDrop ND-1000 (NanoDrop® Technologies, Wilmington, Del.).
(§8) Real-time PCR was performed on DNA samples extracted from cervicovaginal fluid (CVF) collected from 41 healthy women (H) and 39 BV-affected women before (BV) and after rifaximin/placebo treatment R (11 women in remission) and N (28 women not in remission).
(§9) Specific primer sets targeted to 16S rRNA gene or 16S-23S rRNA spacer region were used to quantify the following genus or species: Lactobacillus, Gardnerella vaginalis, Atopobium, Prevotella, Veillonella, Mycoplasma hominis and Mobiluncus.

[2] = test system: Veillonella
Description: as §1, §2, §3, §4, §5, §6, §7, §8, §9

[3] = test system: Prevotella
Description: as §1, §2, §3, §4, §5, §6, §7, §8, §9

[4] = test system: Mycoplasma hominis
Description: as §1, §2, §3, §4, §5, §6, §7, §8, §9

[5] = test system: Lactobacillus
Description: as §1, §2, §3, §4, §5, §6, §7, §8, §9

[6] = test system: Atopobium
Description: as §1, §2, §3, §4, §5, §6, §7, §8, §9

[7] = test system: Gardnerella vaginalis
Description: as §1, §2, §3, §4, §5, §6, §7, §8, §9

[8] = R group: women in remission after rifaximin treatment at V3
[9] = R group: women in remission after rifaximin treatment at V3, qPCR

SMILES: CO[C@H]1/C=C/O[C@@]2(C)Oc3c(C)c(O)c4c(O)c(c5c(nc6cc(C)ccn65)c4c3C2=O)NC(=O)/C(C)=C\C=C\[C@H](C)[C@H](O)[C@@H](C)[C@@H](O)[C@@H](C)[C@H](OC(C)=O)[C@@H]1C [rifaximin]
- Mobiluncus quantification in R group ([1]; R group at V3): not quantified in any of the women
- Target DNA/genomic vaginal DNA (median), Mobiluncus [1, 8]: 0.0 ng/µg
- % of women hosting Mobiluncus [1, 9]: 0.0%
- Veillonella quantification in R group ([2]; R group at V3): not quantified in any of the women
- Target DNA/genomic vaginal DNA (median), Veillonella [2, 8]: 0.0 ng/µg
- % of women hosting Veillonella [2, 9]: 0.0%
- Prevotella concentration in R group ([3]; R group at V3): very low concentrations
- Target DNA/genomic vaginal DNA (median), Prevotella [3, 8]: 0.0451 ng/µg
- % of women hosting Prevotella [3, 9]: 81.8%
- M. hominis in R group compared to BV group ([4]; R group at V3 vs BV group): significant reduction
- Target DNA/genomic vaginal DNA (median), Mycoplasma hominis [4, 8]: 0.00156 ng/µg
- % of women hosting Mycoplasma hominis [4, 9]: 63.6%
- median value of Lactobacilli in R group relative to BV group ([5]; R group after antibiotic treatment vs BV group, higher): about 10 times
- Target DNA/genomic vaginal DNA (median), Lactobacillus [5, 8]: 46.3 ng/µg
- % of women hosting Lactobacillus [5, 9]: 100%
- Atopobium concentration in R group compared to BV group ([6]; R group at V3 vs BV group, still higher than H group): significantly lower
- Target DNA/genomic vaginal DNA (median), Atopobium [6, 8]: 4.86 ng/µg
- % of women hosting Atopobium [6, 9]: 100%
- G. vaginalis concentration in R group ([7]; R group at V3): very low concentrations
- Target DNA/genomic vaginal DNA (median), G. vaginalis [7, 8]: 0.0 ng/µg
- % of women hosting Gardnerella vaginalis [7, 9]: 45.5%
